Data from US9186385B2 (priority 2009, dated 2015).

Legend:
[1] = test system: antibody level of hemolysin; assay: Circulating antibody level test on sheep red blood cells (cyclophosphamide immunodeficient mice); type: in vivo; settings: 0.03 g/kg gastric infusion 7 days; cyclophosphamide-treated mice; OD 540 nm
Protocol: The anti-inflammatory effects of the extract compositions AB and ABC were determined for a series of treatment groups through the circulating antibody level test on sheep red blood cells.
Mice weighing 20-25 g were used in this study. Each group comprised an equal number of male and female animals. Rearing temperature was 23±2° C. The mice were divided into nine groups with 10 rats each: (1) blank control, (2) model control, (3) AB high dosage (15 g/kg), (4) AB mid dosage (7.5 g/kg), (5) AB low dosage (3.75 g/kg), (6) ABC high dosage (13.0 g/kg), (7) ABC mid dosage (7.66 g/kg), (8) ABC low dosage (3.83 g/kg), and (9) levamisole (0.03 g/kg).
The treatments of placebo and extract compositions were administered to each of the mice by gastric infusion for a period of 7 days. On the 2nd, 4th, and 6th day, each mouse, with the exception of those in the blank control group, was injected intraperitoneally with 50 mg/10 ml/kg of cyclophosphamide. Mice in the blank control group were injected intraperitoneally with saline of the same volume. Three days following administration of the final treatment (on day 7), all mice were each immunized by intraperitoneal injections of 0.2 ml of sheep erythrocyte suspension (5% of sheep erythrocyte in saline). […] The absorbance for each supernatant sample was recorded as an index of serum hemolytic level. […]

[2] = test system: peritoneal macrophage phagocytosis; assay: Peritoneal macrophage phagocytosis in mice (India ink clearance, cyclophosphamide); type: in vivo; settings: 0.03 g/kg gastric infusion 7 days; cyclophosphamide-treated mice
[3] = test system: type 1 FM1 influenza virus; assay: Inhibition of the FM1 influenza virus in mice (lung index); type: in vivo, NIH mice
[4] = test system: foot swelling induced by carrageenan; assay: Rat foot swelling induced by carrageenan; type: in vivo, Rats; settings: 0.15 g/kg oral once a day, 4 days
Protocol: The anti-inflammatory effects of the extract compositions AB and ABC were determined for a series of treatment groups through measurement of the foot swelling of rat paws following the administration of carrageenan.
Rats weighing 200±20 g were used in this experiment. Each test group comprised the same number of male and female animals. Rearing temperature was 23±2° C. The rats were divided into eight groups with 10 rats each: (1) model control, (2) AB high dosage (15 g/kg), (3) AB mid dosage (7.5 g/kg), (4) AB low dosage (3.75 g/kg), (5) ABC high dosage (13.0 g/kg), (6) ABC mid dosage (7.66 g/kg), (7) ABC low dosage (3.83 g/kg), (8) sodium salicylate group (0.15 g/kg), […]. There was no blank control in this experiment as there is no swelling of an animal paws where carrageenan is not administered
The method for conducting this experiment followed the guidelines outlined in the Manual on Studies of New Medicines of TCM by the Drug Administration Ministry of Health P.R.C. The method outlined in the manual details the following steps:
1. Draw a clear transverse line situated on the upper and front angles of the left back paw of each rat with a ballpoint pen;
2. Measure the paw volume of each rat;
3. Subcutaneously inject each rat, except those in the blank control group, with a dose of carrageenan (0.05 ml/paw) into the metatarsus of the hindlimb;
4. Orally administer one of the treatments of the AB extract, ABC extract, or sodium salicylate as per the above-noted dosages once a day for a period of 4 days. Rats in the model control group and blank were injected with saline of the same volume;
5. On the morning of the 4th day, one hour following the last administration of the final treatment, subcutaneously inject carrageenan (0.05 ml/paw) into the metatarsus of hindlimb of each rat;
6. Measure the paw volume at each of 1 hour, 2 hours, 3 hours, and 4 hours following the second carrageenan administration; and
7. Calculate the paw swelling percentage for each rat.
The swelling percentage was calculated by the following formula: Swelling percentage=((swelling volumes of rat paw after inflammation−swelling volumes of rat paw before inflammation)/swelling volumes of rat paw before inflammation)×100%
The experimental data was analyzed using the t-test to determine statistically significant differences between the results of each of the groups. There was no swelling in the paws of rats in the blank control group. The anti-inflammatory effects of the AB and ABC herbal extract compositions and sodium salicylate were considered to be effective when P was less than 0.05.

[5] = test system: permeability of the intraperitoneal blood capillary; assay: Anti-inflammatory effect: permeability of the intraperitoneal blood capillary (acetic acid, Evans blue); type: in vivo, NIH mice; settings: 0.15 g/kg intragastric once a day, 3 days; acetic acid i.p.; OD 570 nm
Protocol: The anti-inflammatory effects of the extract compositions AB and ABC were determined for a series of treatment groups through measurement of the permeability of the intraperitoneal blood capillary.
NIH mice, weighing 20±2 g, were used in this experiment. […] The rearing temperature was 23±2° C. The mice were randomly divided into nine groups with 10 mice in each group: (1) blank control, (2) model control, (3) AB high dosage (15 g/kg), (4) AB mid dosage (7.5 g/kg), (5) AB low dosage (3.75 g/kg), (6) ABC high dosage (13.0 g/kg), (7) ABC mid dosage (7.66 g/kg), (8) ABC low dosage (3.83 g/kg), and (9) sodium salicylate group (0.15 g/kg).
An acetic normal saline solution was prepared by dissolving about a 0.4% of glacial acetic acid in 50 ml of a normal saline solution.
A 2% Evans blue normal saline solution was prepared by dissolving 2 g of Evans blue in 100 ml of normal saline solution. […]
About twenty minutes following the receipt of the saline injections, each mouse was sacrificed by breaking its cervical vertebrae. […] The supernatant was then collected and the absorbance or optical density (OD) of the supernatant was measured at 570 nm using a spectrophotometer. The experimental data was analyzed. Data was assessed using the t-test to determine statistically significant differences between the results of each of the groups. […]

[6] = […], 0.07 g/kg intragastric once a day, 3 days, day 4

SMILES: c1ccc([C@H]2CN3CCSC3=N2)cc1 [Levamisole, levamisole]
- OD value of hemolysin [1]: 0.75 ± 0.006
- Phagocytic coefficient (K) [2]: 0.046 ± 0.007
- Phagocytic coefficient index (α) [2]: 6.76 ± 0.43

SMILES: NC(=O)c1ncn([C@@H]2O[C@H](CO)[C@@H](O)[C@H]2O)n1 [Ribavirin]
- Lung Index [3, 6]: 1.19 ± 0.30 g/g
- Weight [3, 6]: 14.94 ± 1.64 g
- The rate of inhibition of lung index ([3]; mouse, in vivo): 32.38%

SMILES: O=C([O-])c1ccccc1O.[Na+] [Sodium salicylate, sodium salicylate]
- Paw swelling ([4]; 1 h after carrageenan): 0.490 ± 0.202 mL
- Paw swelling ([4]; 2 h after carrageenan): 0.405 ± 0.195 mL
- Paw swelling ([4]; 3 h after carrageenan): 0.265 ± 0.153 mL
- Paw swelling ([4]; 4 h after carrageenan): 0.170 ± 0.136 mL
- OD value of haemolysin in serum [5]: 0.305 ± 0.060
